According to patent publication US6759403B2, “Metalloporphyrins and their uses as radiosensitizers for radiation therapy” (Brookhaven Science Associates, LLC, priority 2001, dated 2004):
Where two headings read alike, the source gives them in different places.

Assays:
EMT-6 mammary carcinomas [1] = assay: CuTCPH boron biodistribution in EMT-6 tumor-bearing mice (prior results, Rad. Res. 155, 603-610, 2001); format: in vivo, BALB/c mice
Method: There is a larger vascular system surrounding the dorsal thorax compared with the leg, which may be a factor. However, in the case of CuTCPH, the boron concentration was 30% higher in leg tumors compared to back tumors. Normalizing to the slightly higher dose of the first study, the tumor boron concentration should be about 29 and 15 μg/g at 2d and 5d, respectively, which are still low. Studies are underway to repeat these experiments.
The biodistribution properties for CuTCPBr are similar to other lipophilic tetracarboranyl tetraphenylporphyrins studied previously, particularly the results for CuTCPH which were reported in Rad. Res. 155, 603-610, 2001 and are listed in columns four and five of Table 4. The CuTCPH results were based on two groups of seven (7) BALB/c mice which were given 180 μg/gbw CuTCPH in six intraperitoneal injections over 2 days. The first group of mice was euthanized two days after the last injection and the second group four days after the last injection. The boron concentrations in different tissues were then measured.

[2] = tested on: subcutaneous 9L gliosarcomas; assay: Boron biodistribution after intravenous infusion in rat 9L gliosarcoma model (Examples 6 and 7); format: in vivo, Fischer 344 rats
Method: This example used the experimental rat 9L gliosarcoma model and the protocol used to administer porphyrins by intravenous infusion that were reported in J. NeuroOncol, 52, 111-117, 2001. Six (6) male Fischer 344 rats bearing subcutaneous 9L gliosarcomas were infused intravenously with CuTCPBr at a total dose of 220 μg/gbw over 48 hours. Tumor and blood were sampled from each at zero, one, two and three days after the end of infusion and the boron concentrations measured. In this example, the biodistribution of CuTCPBr was compared to CuTCPH. A group of six (6) male Fischer 344 rats bearing subcutaneous 9L gliosarcomas were infused intravenously with CuTCPBr at a total dose of 220 μg/gbw over 48 hours. A second group of four (4) male Fischer 344 rats bearing subcutaneous 9L gliosarcomas were infused intravenously with CuTCPH at a total dose of 195 μg/gbw. over 48 hours. Boron concentrations in tissues from both groups of rats were taken three days after the end of infusion. The results for the CuTCPBr group of rats are listed in column 2 of Table 6 and the results for the CuTCPH group of rats are listed in column 4 of Table 6. To account for the difference in porphyrin dose (195 μg/gbw for CuTCPH versus 220 μg/gbw for CuTCPBr) and the difference in % boron in each porphyrin (31.8% for CuTCPH versus 21.7 for CuTCPBr), the boron concentrations in tissues from rats given CuTCPBr were normalized so that they would be equivalent to the boron concentrations of rats given CuTCPH. This was done by multiplying the boron concentrations in the CuTCPBr group of rats by the CuTCPBr to CuTCPH boron dose ratio of 1.3. The normalized boron concentrations for the CuTCPBr group of rats are listed in column 3 of Table 6.

[3] = tested on: subcutaneous 9L gliosarcomas; assay: CuTCPH dose increase and tumor boron concentration in rats with 9L gliosarcomas; format: in vivo, Fischer 344 rats
Text: Toxicity is the critical factor, and since no toxicity was observed, the dose can be increased to achieve tumor boron concentrations higher than those in Examples 2 and 3.

EMT-6 mammary carcinomas [4] = conditions: 180 μg/gbw CuTCPH, 6 ip injections over 2 days, cited from earlier work
malignant brain tumors = conditions: clinical use of BPA; cited from earlier work
[5] = 195 μg/gbw CuTCPH (61.8 μg B/gbw) iv over 48 hours, 3 days after end of infusion

In the case of “copper tetracarboranylmethoxyphenylporphyrin [CuTCPH]”, the “decrease of liver boron from two to four days” value (EMT-6 mammary carcinomas [1]; 180 μg/gbw CuTCPH) is reported as 5%, the “boron concentration higher in leg tumors compared to back tumors” value (EMT-6 mammary carcinomas [1]; CuTCPH, leg versus back tumors) is reported as 30% and the “Boron Concentration, Brain” value [2, 5] is reported as 3.2 (1.4) μg/g. The “Boron Concentration, Kidney” value [2, 5] was 16 (2) μg/g, the “Boron Concentration, Lacrimal Gland” value [2, 5] was 45 (11) μg/g and the “Boron Concentration, Liver” value [2, 5] was 638 (53) μg/g. For the same compound, the “Boron Concentration, Lung” value [2, 5] was 83 (12) μg/g, the “Boron Concentration, Lymph Nodes” value [2, 5] was 284 (68) μg/g and the “Boron Concentration, Parotid Gland” value [2, 5] was 125 (26) μg/g. The “Boron Concentration, Spleen” value [2, 5] was 832 (169) μg/g, the “Boron Concentration, Tongue” value [2, 5] was 47 (11) μg/g and the “Boron Concentration, Tumor” value [2, 5] was 63 (23) μg/g. For the same compound, the “Boron concentration, Ears” value [2, 5] was 17 (3) μg/g, the Toxicity ([2]; rats, 220 μg/gbw CuTCPBr or 195 μg/gbw CuTCPH iv over 48 hours) was “does not appear to be a major problem” and the “tumor boron concentration, median” value ([3]; CuTCPH total dose 195 mg/kg body weight) was 64 µg/g. The “tumor boron concentration, median” value ([3]; CuTCPH total dose 450 mg/kg body weight) was 117 µg/g, the “Boron Concentration, Blood” value (EMT-6 mammary carcinomas [4]; after 2 days) was 0 (0) μg/g and the “Boron Concentration, Brain” value (EMT-6 mammary carcinomas [4]; after 2 days) was 0.2 (0.1) μg/g. For the same compound, the “Boron Concentration, Ears (skin)” value (EMT-6 mammary carcinomas [4]; after 2 days) was 8.4 (2.1) μg/g, the “Boron Concentration, Liver” value (EMT-6 mammary carcinomas [4]; after 2 days) was 562 (79) μg/g and the “Boron Concentration, Tumor” value (EMT-6 mammary carcinomas [4]; after 2 days) was 62 (10) μg/g. The “Boron Concentration, Blood” value (EMT-6 mammary carcinomas [4]; after 4 days) was 0.3 (0.1) μg/g, the “Boron Concentration, Brain” value (EMT-6 mammary carcinomas [4]; after 4 days) was 0.7 (0.3) μg/g and the “Boron Concentration, Ears (skin)” value (EMT-6 mammary carcinomas [4]; after 4 days) was 14 (2.6) μg/g. For the same compound, the “Boron Concentration, Liver” value (EMT-6 mammary carcinomas [4]; after 4 days) was 534 (124) μg/g and the “Boron Concentration, Tumor” value (EMT-6 mammary carcinomas [4]; after 4 days) was 71 (9) μg/g.

In the case of N[C@@H](Cc1ccc(B(O)O)cc1)C(=O)O [BPA, p-boronophenylalanine], the “blood boron concentration relative to that found in tumor” value (malignant brain tumors) is listed as “approximately one-third”, the “brain boron concentration relative to that found in tumor” value (malignant brain tumors) is listed as “approximately one-third” and the “chemical toxicity associated with usage” value (malignant brain tumors) is listed as “not eliciting any chemical toxicity”.
